# Measurements as given in US20060069132A1, “Azolecarboxamide herbicides” (priority 2004, published 2006).
# Tests used:
# [1] = tested on: barnyardgrass; experiment: Test B pre-/postemergence herbicide test; assay type: in vivo, Echinochloa crus-galli; settings: 0 = no effect, 100 = complete control, preemergence
# In short: (§1)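 Greenhouse pot assay with simultaneous preemergence (treated seed) and postemergence (2–18 cm seedlings) applications of surfactant-containing, non-phytotoxic solvent formulations. Response scored visually 13–15 days later on a 0–100 scale, 100 meaning complete control.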
# [2] = tested on: Surinam grass; experiment: Test B pre-/postemergence herbicide test; assay type: in vivo, Urochloa decumbens; settings: for Surinam Grass plant response rating: postemergence, scale 0 (no effect) to 100 (complete control)
# In short: as §1
# [3] = tested on: cocklebur; experiment: Test B pre-/postemergence herbicide test; assay type: in vivo, Xanthium strumarium; settings: for Cocklebur plant response rating: postemergence, scale 0 (no effect) to 100 (complete control)
# In short: as §1
# [4] = tested on: corn; experiment: Test B pre-/postemergence herbicide test; assay type: in vivo, Zea mays; settings: for Corn plant response rating: postemergence, scale 0 (no effect) to 100 (complete control)
# In short: as §1
# [5] = tested on: large crabgrass; experiment: Test B pre-/postemergence herbicide test; assay type: in vivo, Digitaria sanguinalis; settings: for Crabgrass, Large plant response rating: postemergence, scale 0 (no effect) to 100 (complete control)
# In short: as §1
# [6] = tested on: giant foxtail; experiment: Test B pre-/postemergence herbicide test; assay type: in vivo, Setaria faberi; settings: for Foxtail, Giant plant response rating: postemergence, scale 0 (no effect) to 100 (complete control)
# In short: as §1
# [7] = tested on: lambsquarters; experiment: Test B pre-/postemergence herbicide test; assay type: in vivo, Chenopodium album; settings: for Lambsquarters plant response rating: postemergence, scale 0 (no effect) to 100 (complete control)
# In short: as §1
# [8] = tested on: morningglory; experiment: Test B pre-/postemergence herbicide test; assay type: in vivo, Ipomoea coccinea; settings: for Morningglory plant response rating: postemergence, scale 0 (no effect) to 100 (complete control)
# In short: as §1
# [9] = tested on: pigweed; experiment: Test B pre-/postemergence herbicide test; assay type: in vivo, Amaranthus retroflexus; settings: for Pigweed plant response rating: postemergence, scale 0 (no effect) to 100 (complete control)
# In short: as §1
# [10] = tested on: rice; experiment: Test B pre-/postemergence herbicide test; assay type: in vivo, Oryza sativa; settings: 0 = no effect, 100 = complete control, preemergence
# Source text: Seeds selected from barnyardgrass (Echinochloa crus-galli (L.) Beauv.), Surinam grass (Urochloa decumbens (Staph) R. D. Webster, previously named Brachiaria decumbens Stapf), cocklebur (Xanthium strumarium L.), corn (Zea mays L.), large crabgrass (Digitaria sanguinalis (L.) Scop.), giant foxtail (Setaria faberi Herim.), lambsquarters (Chenopodium album L.), morningglory (Ipomoea coccinea L.), pigweed (Amaranthus retroflexus L.), rice (Oryza sativa L.) and velvetleaf (Abutilon theophrasti Medik.) were planted and treated preemergence with test chemicals formulated in a non-phytotoxic solvent mixture which included a surfactant.
# At the same time, plants selected from these crop and weed species and also blackgrass (Alopecurus myosuroides Huds.), wheat (Triticum aestivum L.) and wild oat (Avena fatua L.) were treated with postemergence applications of test chemicals formulated in the same manner. Plants ranged in height from 2 to 18 cm (1- to 4-leaf stage) for postemergence treatments. Plant species in the flooded paddy test consisted of rice (Oryza sativa L.), small flower umbrella sedge (Cyperus difformis L.), ducksalad (Heteranthera limosa (Sw.) Willd.) and barnyardgrass (Echinochloa crus-galli (L.) Beauv.) grown to the 2-leaf stage for testing. Treated plants and controls were maintained in a greenhouse for 13 to 15 days, after which time all species were compared to controls and visually evaluated. Plant response ratings, summarized in Table B, are based on a scale of 0 to 100 where 0 is no effect and 100 is complete control. A dash (-) response means no test result.
# [11] = tested on: velvetleaf; experiment: Test B pre-/postemergence herbicide test; assay type: in vivo, Abutilon theophrasti; settings: for Velvetleaf plant response rating: postemergence, scale 0 (no effect) to 100 (complete control)
# In short: as §1
# [12] = tested on: blackgrass; experiment: Test B postemergence herbicide test; assay type: in vivo, Alopecurus myosuroides; settings: postemergence, visual rating, scale 0 (no effect) to 100 (complete control)
# In short: (§2)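 Greenhouse test; postemergence application to plants at 1–4 leaves (2–18 cm); paddy species at 2 leaves; evaluated visually vs controls at 13–15 days; scale 0–100 (100 = complete control).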
# [13] = tested on: wheat; experiment: Test B postemergence herbicide test; assay type: in vivo, Triticum aestivum; parameters: key to Wheat plant response rating: 0 = no effect, 100 = complete control; settings: postemergence, visual rating, scale 0 (no effect) to 100 (complete control)
# In short: (§3)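 Postemergence plants were sprayed with formulated test chemicals at 2 to 18 cm height (1- to 4-leaf stage); paddy species were grown to the 2-leaf stage. After 13 to 15 days in a greenhouse, injury was rated visually against untreated controls on a 0–100 scale (0 = no effect, 100 = complete control).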
# [14] = tested on: wild oat; experiment: Test B postemergence herbicide test; assay type: in vivo, Avena fatua; settings: postemergence, visual rating, scale 0 (no effect) to 100 (complete control)
# In short: as §3
# [15] = tested on: rice; experiment: Test B flooded paddy test; assay type: in vivo, Oryza sativa; settings: 1000 g ai/ha, scale 0 to 100 (0 no effect, 100 complete control)
# In short: as §2
# [16] = tested on: small flower umbrella sedge; experiment: Test B flooded paddy test; assay type: in vivo, Cyperus difformis; settings: 1000 g ai/ha, scale 0 to 100 (0 no effect, 100 complete control)
# In short: as §2
# [17] = tested on: ducksalad; experiment: Test B flooded paddy test; assay type: in vivo, Heteranthera limosa; settings: 1000 g ai/ha, scale 0 to 100 (0 no effect, 100 complete control)
# In short: as §2
# [18] = tested on: barnyardgrass; experiment: Test B flooded paddy test; assay type: in vivo, Echinochloa crus-galli; settings: 1000 g ai/ha, scale 0 to 100 (0 no effect, 100 complete control)
# In short: as §2
# [19] = 125 g ai/ha, 0 = no effect, 100 = complete control, preemergence
# [20] = 500 g ai/ha, visual rating, 0 = no effect, 100 = complete control, preemergence
structure (smiles),measurement,setting,value
CCNC(=O)c1ccnc(NC(=O)c2nn(C(C)(C)C)cc2CC)c1 [Compound 233],Barnyardgrass plant response rating (0 to 100 scale),[1]; 125 g ai/ha,10
same,"Plant response rating, Barnyardgrass","[1]; 500 g ai/ha, visual rating",10
same,Surinam Grass plant response rating (0 to 100 scale),[2]; [19],0
same,"Plant response rating, Surinam Grass",[2]; [20],20
same,Surinam Grass plant response rating,"[2]; 125 g ai/ha, visual rating",10
same,Surinam Grass plant response rating,"[2]; 500 g ai/ha, visual rating",20
same,Cocklebur plant response rating (0 to 100 scale),[3]; [19],0
same,"Plant response rating, Cocklebur",[3]; [20],0
same,Cocklebur plant response rating,"[3]; 125 g ai/ha, visual rating",20
same,Cocklebur plant response rating,"[3]; 500 g ai/ha, visual rating",20
same,Corn plant response rating (0 to 100 scale),[4]; [19],0
same,"Plant response rating, Corn",[4]; [20],0
same,Corn plant response rating,"[4]; 125 g ai/ha, visual rating",10
same,Corn plant response rating,"[4]; 500 g ai/ha, visual rating",30
same,"Crabgrass, Large plant response rating (0 to 100 scale)",[5]; [19],20
same,"Plant response rating, Crabgrass, Large",[5]; [20],90
same,"Crabgrass, Large plant response rating","[5]; 125 g ai/ha, visual rating",10
same,"Crabgrass, Large plant response rating","[5]; 500 g ai/ha, visual rating",10
same,"Foxtail, Giant plant response rating (0 to 100 scale)",[6]; [19],0
same,"Plant response rating, Foxtail, Giant",[6]; [20],0
same,"Foxtail, Giant plant response rating","[6]; 125 g ai/ha, visual rating",0
same,"Foxtail, Giant plant response rating","[6]; 500 g ai/ha, visual rating",30
same,Lambsquarters plant response rating (0 to 100 scale),[7]; [19],0
same,"Plant response rating, Lambsquarters",[7]; [20],30
same,Lambsquarters plant response rating,"[7]; 125 g ai/ha, visual rating",50
same,Lambsquarters plant response rating,"[7]; 500 g ai/ha, visual rating",70
same,Morningglory plant response rating (0 to 100 scale),[8]; [19],0
same,"Plant response rating, Morningglory",[8]; [20],0
same,Morningglory plant response rating,"[8]; 125 g ai/ha, visual rating",50
same,Morningglory plant response rating,"[8]; 500 g ai/ha, visual rating",80
same,Pigweed plant response rating (0 to 100 scale),[9]; [19],0
same,"Plant response rating, Pigweed",[9]; [20],60
same,Pigweed plant response rating,"[9]; 125 g ai/ha, visual rating",60
same,Pigweed plant response rating,"[9]; 500 g ai/ha, visual rating",70
same,Rice plant response rating (0 to 100 scale),[10]; 125 g ai/ha,0
same,"Plant response rating, Rice","[10]; 500 g ai/ha, visual rating",0
same,Velvetleaf plant response rating (0 to 100 scale),[11]; [19],10
same,"Plant response rating, Velvetleaf",[11]; [20],10
same,Velvetleaf plant response rating,"[11]; 125 g ai/ha, visual rating",30
same,Velvetleaf plant response rating,"[11]; 500 g ai/ha, visual rating",50
same,Blackgrass plant response rating,[12]; 125 g ai/ha,0
same,Blackgrass plant response rating,[12]; 500 g ai/ha,10
same,Wheat plant response rating,[13]; 125 g ai/ha,0
same,Wheat plant response rating,[13]; 500 g ai/ha,10
same,"Oat, Wild plant response rating",[14]; 125 g ai/ha,0
same,"Oat, Wild plant response rating",[14]; 500 g ai/ha,20
same,Rice plant response rating,[15],30
same,"Sedge, Umbrella plant response rating",[16],80
same,Ducksalad plant response rating,[17],50
same,Barnyardgrass plant response rating,[18],0
